# Source: patent publication US11963848B2, “Impactor platform allowing freefall upon impact” (George Mason University, priority 2019, dated 2024)
# System: C57Bl/6J wild-type mice with rmTBI
# Test: Morris Water Maze assessment for spatial memory in rmTBI mice, intranasal zinc vs vehicle
# Format: in vivo
# Procedure: Subjects were C57Bl/6J wild-type mice that were 6 weeks of age at the time of the first stressor. All mice received rmTBI delivered using a system 100/200.
# For 7 days, stress groups were subject to a rotation of varied stressors, including: • 1. Deprivation of food, water, and enrichment for 8 hours. • 2. Exposure to soiled rat bedding in home cage. • 3. Exposure to bobcat urine in home cage. • 4. Forced swim in ice bath for 5 minutes. • 5. Home cage flooded with water. • 6. Home cage placed on orbital shaker for 5 minutes. • 7. Loud static noise for 1 hour. • 8. Restraint in conical Falcon tube for 1 hour.
# A second week of varied stressors was administered concurrently with rmTBI. The rmTBI closed-head injury was induced by Leica One Controlled Cortical Impact device with falling platform as in system 100, causing the mouse to rotate upon impact. Anesthetized mice received one mTBI every 48 hours over the course of 7 days for a total of 4 injuries. Immediately following injury, mice were intranasally administered either zinc treatment or vehicle control (water).
# Changes in behavior were also analyzed, using the Morris Water Maze assessment for spatial memory over 7 days. In this measure of learning and memory, the mouse is tested for the ability to locate a platform in a pool of water using visual cues. Days 1-6 had 3 trials, and days 2, 4 and 6 used a hidden platform for trial 3. Day 7 comprised a 24-hr probe trial.
substance,measurement,setting,value
zinc,time spent in the quadrant of the maze where the platform was present (Morris water maze),"day 6, non-stressed mice only, trending stress x zinc interaction F(1,39)=4.002, p=0.052, zinc intranasally after injury vs vehicle, FIG. 11",beneficial effect
same,number of platform crossings (Morris water maze),"effect only for stressed mice, stress x zinc interaction F(1,39)=4.207, p=0.047, zinc intranasally after injury vs vehicle, FIG. 10",significantly increased
same,latency in locating the maze platform (Morris water maze),"stressed and non-stressed, zinc intranasally immediately after each injury vs vehicle control (water), F(1,39)=2.184, p=0.147, FIG. 9",did not differ
